Data on 3 compounds can be found in patent US6419922B1, “Candida saitoana compositions for biocontrol of plant postharvest decay” (Biotechnology Research and Development Corporation, priority 1998, dated 2002).

The subject of assay [1] is Penicillium digitatum. Description: Natural infection of orange and lemon fruit, semi-commercial on line spray treatment. Type of assay: in vivo. To be noted: line spray within 48 hours after harvest, 50-55° F., after 3 weeks. From the text:
Additional tests were also done to determine the effect of different combinations of biochemicals and microorganisms on natural infections of citrus fruit. Orange and lemon fruit from field bins were washed on line following standard commercial practices [Standard Pre Chlorine was (50 ppm); size and color blemish sorting, and randomized]. Thereafter the fruit was washed and treated with either water, a yeast cell suspension containing 0.1% lysozyme, or Imazalil using an on line spray system. Each treatment consisted of at least 8 to 13 boxes of fruit; each box representing a replicate of approximately 60 to 100 fruit. The fruit was held at 50-55° F. and the percentage of decay was determined after 3 weeks.

For assay [2], the system named is Botrytis cinerea. Description: Inhibition of spore germination in 24-well microtiter dish. Type of assay: cell-based. To be noted: for Inhibition of Germination (%) Botrytis cinerea: five hundred spores per well, 0.2% maltose extract broth, 24° C., after 24 hours. Here is the method: The inhibitory activity of antifungal enzymes, in this example, lysozyme and lyticase, against the pathogen Botrytis cinerea, was determined in a 24-well microtiter dish. Autoclaved solutions of 0.2% maltose extract broth were amended with membrane-sterilized solutions of lysozyme and lyticase to obtain a concentration of 0.1% and 0.5% of lysozyme and lyticase, respectively. One hundred microliters of the enzyme solution was dispensed into each well. Each well was inoculated with five hundred spores of B. cinerea. Four replicates of eight wells were used for each treatment. Microtiter dishes were incubated in the dark at 24° C. Percent spore germination was determined after 24 hours. Spores were inhibited by either enzyme.

Assay [3] relates to Candida saitoana. Put plainly: Survival of Candida saitoana in enzyme solutions (yeast maltose broth). The format is cell-based. To be noted: for Yeast Cell Counts (CFU/ml) 1 day / Yeast Cell Counts (CFU/ml) 4 days: inoculated with 10^4 yeast cells/ml, yeast maltose broth. The method, then:
The effect of lysozyme and lyticase on the survival of C. saitoana in yeast maltose broth was also determined. Culture flasks containing sterile solutions of 0.2% yeast maltose broth were amended with membrane-sterilized solutions of lysozyme and lyticase to obtain a concentration of 0.1% and 0.6% of lysozyme and lyticase, respectively. Each flask was started with approximately 10^4 colony forming units (CFU) of yeast and the flasks were incubated on an orbital shaker set at 200 rpm. Samples were collected and dilution-plated in duplicate on yeast-maltose agar medium. The plates were incubated 24° C. and colonies were counted after 48 h.

The test system of assay [4] is Penicillium digitatum. Description: Protective effect on decay of wounded orange and lemon fruit, treated then challenge inoculated. The format is in vivo. As to conditions: wounds treated then inoculated with 20 μL P. digitatum 10^4 conidia/ml, 7 days at 24° C. Here is the method:
(§1) Yeast cells from 48 hour old cultures of C. saitoana were pelleted by centrifugation, resuspended in sterile distilled water, and centrifuged. Pellets were suspended in water, 0.01% and 0.1% lysozyme of 0.6% lyticase, and the concentration of the yeast suspension was adjusted to 10^8 CFU/ml.
(§2) Apple, orange, and lemon fruit were individually wounded and each wound was treated with fifty microliters of one of the following treatments:
yeast cell suspension (C. saitoana);
yeast cell suspension containing 0.01% or 0.1% lysozyme;
yeast cell suspension containing 0.6% lyticase;
(§3) Fruit wounds were either treated with the different treatments and then inoculated with 20 μL of a pathogen spore suspension to determine protective effects, or inoculated with a pathogen spore suspension and 24 hours later were treated with the different treatments to determine curative effects. Apple wounds were inoculated (i.e., pathogens were placed in the wound) with the pathogens B. cinerea and P. expansum, whereas orange and lemon wounds were inoculated with P. digitatum. Treated fruit were incubated at 24° C. in plastic trays at high humidity. For each treatment, 20 to 100 fruit were arranged in a randomized complete block design. Percent infection was determined for each treatment after 7 days of storage. The tests were repeated twice. […] The effect was greater than for either agent alone.

In assay [5] the test system is P. expansum. Description: Curative effect on established infection of apple fruit (treated 24 hours after inoculation). The format is in vivo, Penicillium expansum. As to conditions: treatment 24 hours after inoculation. Here is the method:
as §1, §2, §3
(§4) In the past, the lack of curative activity has been identified as a major limitation of biological approaches to pathogen control.

In assay [6] the test system is P. digitatum. Description: Curative effect on established infection of citrus fruit (treated 24 hours after inoculation). The format is in vivo, Penicillium digitatum. As to conditions: treatment 24 hours after inoculation. Here is the method:
as §1, §2, §3, §4

For `C=CCOC(Cn1ccnc1)c1ccc(Cl)cc1Cl` (stereo not shown) [Imazalil], the “Infected Fruit (%) Penicillium digitatum Lemon” value in assay [1] (lemon) is 4.6b %. Besides, the “Infected Fruit (%) Penicillium digitatum Orange” value in assay [1] (orange) is listed as 2.4b %.

For lysozyme, in assay [2], the “Inhibitory activity against Botrytis cinerea spores (in words)” value is “inhibitory” and the “Inhibition of Germination (%) Botrytis cinerea” value is listed as 100%. Further, in assay [3], the “Effect on growth / survival of the yeast C. saitoana (in words)” value is recorded as “no effect”, the “Yeast Cell Counts (CFU/ml) 1 day” value is >2.0 × 10^5 CFU/ml and the “Yeast Cell Counts (CFU/ml) 4 days” value is on record as >2.0 × 10^5 CFU/ml. In assay [4], the “Infected Fruit (%) Penicillium digitatum Lemon” value was 86b % and the “Infected Fruit (%) Penicillium digitatum Orange” value was determined as 88%. For the same compound, the “Infected Fruit (%) Penicillium digitatum Orange” value in assay [4] (listed as 0.01% lysozyme) is 88b %. For the same compound, in assay [5], the “Effect on established infection caused by P. expansum (in words)” value is listed as “little effect”. Further, the “Effect on established infection caused by P. digitatum (in words)” value in assay [6] was “little effect”.

In the case of lyticase, in assay [2], the “Inhibitory activity against Botrytis cinerea spores (in words)” value is on record as “inhibitory” and the “Inhibition of Germination (%) Botrytis cinerea” value turned out to be 100%. Further, in assay [3], the “Effect on growth / survival of the yeast C. saitoana (in words)” value is reported as “no effect”, the “Yeast Cell Counts (CFU/ml) 1 day” value is given as >2.0 × 10^5 CFU/ml and the “Yeast Cell Counts (CFU/ml) 4 days” value is recorded as >2.0 × 10^5 CFU/ml. Moreover, in assay [4], the “Infected Fruit (%) Penicillium digitatum Lemon” value was 85b % and the “Infected Fruit (%) Penicillium digitatum Orange” value is 88%. The “Infected Fruit (%) Penicillium digitatum Orange” value in assay [4] (listed as 0.1% lyticase) is given as 88b %. The “Effect on established infection caused by P. expansum (in words)” value in assay [5] is on record as “little effect”. Further, the “Effect on established infection caused by P. digitatum (in words)” value in assay [6] was “little effect”.
